≈ marks a conversion by molar mass, not a printed value.
Tested on: Mycobacterium tuberculosis
Assay: Antimycobacterial activity against multi-drug resistant Mycobacterium tuberculosis
Type: functional

| SMILES | MIC [µg/mL] |
| --- | --- |
| COc1c(N2CCN(Cn3c(O)c(/N=N/C(N)=O)c4ccccc43)C(C)C2)c(F)cc2c(=O)c(C(=O)O)cn(C3CC3)c12 (configuration not stated) | 0.05 (≈ 0.0845 µM) |
| COc1c(N2CCN(Cn3c(O)c(/N=N/C(=N)S)c4cc(Cl)ccc43)C(C)C2)c(F)cc2c(=O)c(C(=O)O)cn(C3CC3)c12 (configuration not stated) | 0.78 (≈ 1.21 µM) |
| COc1c(N2CCN(CN3C(=O)/C(=N\c4ccc(S(=O)(=O)Nc5ncccn5)cc4)c4cc(Cl)ccc43)C(C)C2)c(F)cc2c(=O)c(C(=O)O)cn(C3CC3)c12 (configuration not stated) | 0.1 (≈ 0.125 µM) |
| COc1c(N2CCN(Cn3c(O)c(/N=N/C(=N)S)c4ccccc43)C(C)C2)c(F)cc2c(=O)c(C(=O)O)cn(C3CC3)c12 (configuration not stated) | 0.2 (≈ 0.329 µM) |
| COc1c(N2CCN(CN3C(=O)/C(=N\c4ccc(S(=O)(=O)Nc5ncccn5)cc4)c4ccccc43)C(C)C2)c(F)cc2c(=O)c(C(=O)O)cn(C3CC3)c12 (configuration not stated) | 0.1 (≈ 0.13 µM) |
| COc1c(N2CCN(Cn3c(O)c(/N=N/C(N)=O)c4cc(Cl)ccc43)C(C)C2)c(F)cc2c(=O)c(C(=O)O)cn(C3CC3)c12 (configuration not stated) | 0.78 (≈ 1.25 µM) |
| COc1c(N2CCN(Cn3c(O)c(/N=N/C(=O)c4ccncc4)c4cc(F)ccc43)C(C)C2)c(F)cc2c(=O)c(C(=O)O)cn(C3CC3)c12 (configuration not stated) | 0.78 (≈ 1.16 µM) |
| COc1c(N2CCN(Cn3c(O)c(/N=N/C(=O)c4ccncc4)c4cc(C)ccc43)C(C)C2)c(F)cc2c(=O)c(C(=O)O)cn(C3CC3)c12 (configuration not stated) | 0.78 (≈ 1.17 µM) |
| COc1c(N2CCN(CN3C(=O)/C(=N\c4ccc(S(=O)(=O)Nc5ncccn5)cc4)c4cc(C)ccc43)C(C)C2)c(F)cc2c(=O)c(C(=O)O)cn(C3CC3)c12 (configuration not stated) | 0.78 (≈ 0.999 µM) |
| COc1c(N2CCN(Cn3c(O)c(/N=N/C(=N)S)c4cc(C)ccc43)C(C)C2)c(F)cc2c(=O)c(C(=O)O)cn(C3CC3)c12 (configuration not stated) | 0.78 (≈ 1.25 µM) |
| COc1c(N2CCN(CN3C(=O)/C(=N\c4ccc(S(=O)(=O)Nc5ncccn5)cc4)c4cc(F)ccc43)C(C)C2)c(F)cc2c(=O)c(C(=O)O)cn(C3CC3)c12 (configuration not stated) | 0.1 (≈ 0.127 µM) |
| COc1c(N2CCN(Cn3c(O)c(/N=N/C(=O)c4ccncc4)c4ccccc43)C(C)C2)c(F)cc2c(=O)c(C(=O)O)cn(C3CC3)c12 (configuration not stated) | 0.2 (≈ 0.306 µM) |
| COc1c(N2CCN(Cn3c(O)c(/N=N/C(=N)S)c4cc(F)ccc43)C(C)C2)c(F)cc2c(=O)c(C(=O)O)cn(C3CC3)c12 (configuration not stated) | 0.1 (≈ 0.16 µM) |
| COc1c(N2CCN(Cn3c(O)c(/N=N/C(N)=O)c4cc(F)ccc43)C(C)C2)c(F)cc2c(=O)c(C(=O)O)cn(C3CC3)c12 (configuration not stated) | 0.2 (≈ 0.328 µM) |
| COc1c(N2CCN(Cn3c(O)c(/N=N/C(N)=O)c4cc(C)ccc43)C(C)C2)c(F)cc2c(=O)c(C(=O)O)cn(C3CC3)c12 (configuration not stated) | 0.78 (≈ 1.29 µM) |
| COc1c(N2CCN(Cn3c(O)c(/N=N/C(=O)c4ccncc4)c4cc(Cl)ccc43)C(C)C2)c(F)cc2c(=O)c(C(=O)O)cn(C3CC3)c12 (configuration not stated) | 0.78 (≈ 1.13 µM) |
| COc1c(N2CCNC(C)C2)c(F)cc2c(=O)c(C(=O)O)cn(C3CC3)c12 (configuration not stated) [GATIFLOXACIN] | 3.12 (≈ 8.31 µM) |

From ChEMBL document CHEMBL1147715, “Gatifloxacin derivatives: synthesis, antimycobacterial activities, and inhibition of Mycobacterium tuberculosis DNA gyrase” (Bioorg Med Chem Lett, 2006)
